# Data: ChEMBL document CHEMBL1201862, “PubChem BioAssay data set” (2004)
# Activity calls are given as the source filed them.
# Legend:
# [1] = inhibitors of non-replicating M. tuberculosis, dose response, luciferase, dry powder (AID 651620); format: functional; conditions: Mycobacterium tuberculosis
# [2] = inhibitors of non-replicating M. tuberculosis, dose response, luciferase, dry powder (AID 651619); format: functional; conditions: Mycobacterium tuberculosis
# Vasopressin V2 receptor = Vasopressin V2 receptor (Homo sapiens, UniProt P30518); assay: Late-stage results from the probe development effort to identify antagonists of arginine vasopressin receptor 1a (AVPR1a): fluorescence-based cell-based dose response AVPR2 inhibition counterscreen assay.; format: functional
# Chain of Vasopressin V2 receptor (P30518 whole entry): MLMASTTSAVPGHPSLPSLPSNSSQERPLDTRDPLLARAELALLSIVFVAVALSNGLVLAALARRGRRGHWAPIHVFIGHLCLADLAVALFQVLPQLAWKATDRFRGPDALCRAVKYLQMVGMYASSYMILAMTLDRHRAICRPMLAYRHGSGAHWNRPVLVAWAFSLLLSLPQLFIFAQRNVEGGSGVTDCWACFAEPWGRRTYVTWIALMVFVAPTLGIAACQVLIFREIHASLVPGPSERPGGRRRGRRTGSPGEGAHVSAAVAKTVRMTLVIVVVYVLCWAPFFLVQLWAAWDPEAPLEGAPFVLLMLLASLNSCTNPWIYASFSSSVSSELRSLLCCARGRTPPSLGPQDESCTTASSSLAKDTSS
# [3] = Late-stage results from the probe development effort to identify antagonists of arginine vasopressin receptor 1a (AVPR1a): fluorescence-based cell-based dose response OXTR inhibition counterscreen assay.; format: functional
# Vasopressin V1b receptor = Vasopressin V1b receptor (Homo sapiens, UniProt P47901); assay: Late-stage results from the probe development effort to identify antagonists of arginine vasopressin receptor 1a (AVPR1a): fluorescence-based cell-based dose response AVPR1b inhibition counterscreen assay.; format: functional
# Chain of Vasopressin V1b receptor (P47901 whole entry): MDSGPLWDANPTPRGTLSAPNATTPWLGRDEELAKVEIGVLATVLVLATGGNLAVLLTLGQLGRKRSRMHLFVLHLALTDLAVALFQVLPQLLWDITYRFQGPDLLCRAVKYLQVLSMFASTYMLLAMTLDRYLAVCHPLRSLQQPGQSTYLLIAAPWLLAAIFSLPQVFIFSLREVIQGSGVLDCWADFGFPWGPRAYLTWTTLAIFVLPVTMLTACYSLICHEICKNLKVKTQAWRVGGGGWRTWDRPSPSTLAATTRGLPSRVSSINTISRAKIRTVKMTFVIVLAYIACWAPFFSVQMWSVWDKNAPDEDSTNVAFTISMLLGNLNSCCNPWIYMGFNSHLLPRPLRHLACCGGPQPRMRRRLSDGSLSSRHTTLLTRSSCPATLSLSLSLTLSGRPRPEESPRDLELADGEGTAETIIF
# [4] = Late-stage results from the probe development effort to identify antagonists of arginine vasopressin receptor 1a (AVPR1a): fluorescence-based cell-based dose response AVPR1a inhibition assay.; format: functional
# Kallikrein-7 = Kallikrein-7 (Homo sapiens, UniProt P49862); assay: Fluorescence Intensity-based biochemical primary high throughput dose response assay to identify activators of kallikrein-7 (K7) zymogen.
# Chain of Kallikrein-7 (P49862 whole entry): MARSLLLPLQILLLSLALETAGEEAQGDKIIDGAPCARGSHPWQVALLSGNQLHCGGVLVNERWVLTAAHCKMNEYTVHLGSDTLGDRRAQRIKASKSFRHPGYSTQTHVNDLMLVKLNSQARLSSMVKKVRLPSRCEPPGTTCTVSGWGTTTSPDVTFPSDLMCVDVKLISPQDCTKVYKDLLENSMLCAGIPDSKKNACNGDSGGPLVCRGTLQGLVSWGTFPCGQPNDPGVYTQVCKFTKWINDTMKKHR
# [5] = Late stage counterscreen for inhibitors of Trypanosoma brucei methionyl tRNA synthetase (MetRS): Luminescence-based cell-based high throughput dose response assay to identify compounds that are cytotoxic to Jurkat human T lymphocyte cells.; format: functional
# [6] = Luminescence Cell-Based Dose Retest to Confirm Inhibitors of Cancer Stem Cells. [Related pubchem assays (depositor defined):AID2717, AID2721]; format: functional; conditions: Homo sapiens
# [7] = viability loss in HepG2 liver cells – cell-based, ATP luminescence, cherry-pick, set 6, cytotoxicity control, dose response (AID 1053125); format: functional
# cells = conditions: A549
structure (smiles),measurement,setting,value
Fc1ccc(-c2nnc(SCc3cn(-c4ccccc4)nn3)o2)cc1,IC90,[1],1 µM (active)
same,IC90,[2],1 µM (active)
Cc1ccnc(N2CCN(C(=O)N(CC3CC3)c3ccc(Cl)cc3)CC2)c1,IC50,Vasopressin V2 receptor,> 50 µM (inactive)
same,IC50,[3],> 50 µM (inactive)
same,IC50,Vasopressin V1b receptor,> 50 µM (inactive)
same,IC50,[4],0.0158 µM (active)
Cc1cc(=O)oc2c3c(cc(OCC(=O)NCc4ccncc4)c12)OC(C)(C)CC3,EC50,Kallikrein-7,> 69.5 µM (inactive)
O=C(CC(=O)Nc1cccc(Cl)c1)NN=Cc1ccccc1,IC50,[5],> 83.3 µM (inactive)
CCCCCCc1cc2cc(S(=O)(=O)c3ccc(C)cc3)c(=O)oc2cc1O,AC50,[6],2.46 µM (active)
same,AC50,[7],> 52 µM (inactive)
same,AC50,cells,37.9 µM (active)
